Measured values as given in PubChem BioAssay (NCI).
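Values below derive from 48-hour exposures of cells grown in 96-well plates, with endpoints linearly interpolated between the two concentrations bracketing the appropriate inhibition level. Abbreviation: GI50, concentration required for 50% inhibition of growth. TGI denotes the concentration required for complete inhibition of growth.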

Key:
Assay in all cases: NCI anticancer screen, dose series, 48 h
MOLT-4 leukemia = test system: MOLT-4 leukemia
SW-620 colon = test system: SW-620 colon
SK-OV-3 ovarian = test system: SK-OV-3 ovarian
OVCAR-8 ovarian = test system: OVCAR-8 ovarian
SNB-75 CNS = test system: SNB-75 CNS
SK-MEL-2 melanoma = test system: SK-MEL-2 melanoma
MALME-3M melanoma = test system: MALME-3M melanoma
OVCAR-4 ovarian = test system: OVCAR-4 ovarian
OVCAR-3 ovarian = test system: OVCAR-3 ovarian
PC-3 prostate = test system: PC-3 prostate
T-47D breast = test system: T-47D breast
MCF7 breast = test system: MCF7 breast
HCT-116 colon = test system: HCT-116 colon
HCT-15 colon = test system: HCT-15 colon
RXF 393 renal = test system: RXF 393 renal
KM12 colon = test system: KM12 colon
HOP-92 NSCLC = test system: HOP-92 NSCLC
SF-268 CNS = test system: SF-268 CNS
COLO 205 colon = test system: COLO 205 colon
OVCAR-5 ovarian = test system: OVCAR-5 ovarian
NCI-H23 lung = test system: NCI-H23 lung
CAKI-1 renal = test system: CAKI-1 renal
NCI-H460 lung = test system: NCI-H460 lung
786-0 renal = test system: 786-0 renal
K-562 leukemia = test system: K-562 leukemia
MDA-MB-435 = test system: MDA-MB-435
RPMI-8226 leukemia = test system: RPMI-8226 leukemia
HS 578T breast = test system: HS 578T breast
ACHN renal = test system: ACHN renal
DU-145 prostate = test system: DU-145 prostate
UACC-257 melanoma = test system: UACC-257 melanoma
HOP-62 NSCLC = test system: HOP-62 NSCLC
NCI/ADR-RES ovarian = test system: NCI/ADR-RES ovarian
TK-10 renal = test system: TK-10 renal
M14 melanoma = test system: M14 melanoma
IGROV1 ovarian = test system: IGROV1 ovarian
HT29 colon = test system: HT29 colon
SNB-19 CNS = test system: SNB-19 CNS
SF-295 CNS = test system: SF-295 CNS
UO-31 renal = test system: UO-31 renal
MDA-MB-231 breast = test system: MDA-MB-231 breast
HCC-2998 colon = test system: HCC-2998 colon
HL-60(TB) leukemia = test system: HL-60(TB) leukemia
SK-MEL-5 melanoma = test system: SK-MEL-5 melanoma
UACC-62 melanoma = test system: UACC-62 melanoma
SF-539 CNS = test system: SF-539 CNS
A498 renal = test system: A498 renal
NCI-H522 lung = test system: NCI-H522 lung
SR leukemia = test system: SR leukemia
NCI-H226 lung = test system: NCI-H226 lung
LOX IMVI melanoma = test system: LOX IMVI melanoma
A549 NSCLC = test system: A549 NSCLC
SN12C renal = test system: SN12C renal
CCRF-CEM leukemia = test system: CCRF-CEM leukemia
SK-MEL-28 melanoma = test system: SK-MEL-28 melanoma
EKVX NSCLC = test system: EKVX NSCLC
U251 CNS = test system: U251 CNS

CNc1ccc(C(=O)CC(O)CCC(C)C2OC(=O)CC(O)CC(=O)CC(O)CC(O)CC(O)CC(O)CC3(O)CC(O)C(C(=O)NCCN(C)C)C(CC(OC4OC(C)C(O)C(NC(=O)CN5CCN(CCO)CC5)C4O)/C=C/C=C/C=C/C=C\C=C/C=C/C=C/C2C)O3)cc1 (stereo not drawn)
GI50 (MOLT-4 leukemia): 424 nM | TGI (MOLT-4 leukemia): > 21400 nM | GI50 (SW-620 colon): 728 nM | TGI (SW-620 colon): > 50000 nM | GI50 (SK-OV-3 ovarian): 2380 nM | TGI (SK-OV-3 ovarian): > 50000 nM | GI50 (OVCAR-8 ovarian): 2500 nM | TGI (OVCAR-8 ovarian): > 50000 nM | GI50 (SNB-75 CNS): > 22300 nM | TGI (SNB-75 CNS): > 50000 nM | GI50 (SK-MEL-2 melanoma): 19900 nM | TGI (SK-MEL-2 melanoma): > 50000 nM | GI50 (MALME-3M melanoma): 96.6 nM | TGI (MALME-3M melanoma): 300 nM | GI50 (OVCAR-4 ovarian): 1650 nM | TGI (OVCAR-4 ovarian): > 17400 nM | GI50 (OVCAR-3 ovarian): 768 nM | TGI (OVCAR-3 ovarian): 3030 nM | GI50 (PC-3 prostate): 296 nM | TGI (PC-3 prostate): > 50000 nM | GI50 (T-47D breast): 1080 nM | TGI (T-47D breast): > 50000 nM | GI50 (MCF7 breast): 219 nM | TGI (MCF7 breast): > 50000 nM | GI50 (HCT-116 colon): 546 nM | TGI (HCT-116 colon): 2130 nM | GI50 (HCT-15 colon): 2920 nM | TGI (HCT-15 colon): > 50000 nM | GI50 (RXF 393 renal): > 50000 nM | TGI (RXF 393 renal): > 50000 nM | GI50 (KM12 colon): 165 nM | TGI (KM12 colon): 490 nM | TGI (HOP-92 NSCLC): > 50000 nM | GI50 (SF-268 CNS): 193 nM | TGI (SF-268 CNS): > 50000 nM | GI50 (COLO 205 colon): 508 nM | TGI (COLO 205 colon): 1810 nM | GI50 (OVCAR-5 ovarian): 3590 nM | TGI (OVCAR-5 ovarian): > 30600 nM | GI50 (NCI-H23 lung): 14800 nM | TGI (NCI-H23 lung): 47300 nM | GI50 (CAKI-1 renal): 192 nM | TGI (CAKI-1 renal): > 18700 nM | GI50 (NCI-H460 lung): 242 nM | TGI (NCI-H460 lung): 1740 nM | GI50 (786-0 renal): 197 nM | TGI (786-0 renal): > 50000 nM | GI50 (K-562 leukemia): 163 nM | TGI (K-562 leukemia): 1350 nM | GI50 (MDA-MB-435): 692 nM | TGI (MDA-MB-435): 1910 nM | GI50 (RPMI-8226 leukemia): > 50000 nM | TGI (RPMI-8226 leukemia): > 50000 nM | GI50 (HS 578T breast): > 50000 nM | TGI (HS 578T breast): > 50000 nM | GI50 (ACHN renal): 1120 nM | TGI (ACHN renal): 2440 nM | GI50 (DU-145 prostate): 161 nM | TGI (DU-145 prostate): 610 nM | GI50 (UACC-257 melanoma): 935 nM | TGI (UACC-257 melanoma): 2790 nM | GI50 (HOP-62 NSCLC): 1170 nM | TGI (HOP-62 NSCLC): 6210 nM | GI50 (NCI/ADR-RES ovarian): 2070 nM | TGI (NCI/ADR-RES ovarian): 14200 nM | GI50 (TK-10 renal): 143 nM | GI50 (M14 melanoma): 494 nM | TGI (M14 melanoma): 1510 nM | GI50 (IGROV1 ovarian): > 50000 nM | TGI (IGROV1 ovarian): > 50000 nM | GI50 (HT29 colon): 931 nM | TGI (HT29 colon): > 11600 nM | GI50 (SNB-19 CNS): 1620 nM | TGI (SNB-19 CNS): > 50000 nM | GI50 (SF-295 CNS): 706 nM | TGI (SF-295 CNS): 1640 nM | GI50 (UO-31 renal): 2170 nM | TGI (UO-31 renal): > 50000 nM | GI50 (MDA-MB-231 breast): 832 nM | TGI (MDA-MB-231 breast): 2910 nM | GI50 (HCC-2998 colon): 1910 nM | TGI (HCC-2998 colon): 4260 nM

CCCCNCC(O)c1cc2c(Cl)cc(Cl)cc2c2cc(C(F)(F)F)ccc12 (stereo not drawn)
GI50 (SW-620 colon): 1690 nM | TGI (SW-620 colon): 3220 nM | GI50 (OVCAR-8 ovarian): 1890 nM | TGI (OVCAR-8 ovarian): 3860 nM | GI50 (HL-60(TB) leukemia): 1770 nM | TGI (HL-60(TB) leukemia): 3610 nM | GI50 (SK-MEL-5 melanoma): 1710 nM | TGI (SK-MEL-5 melanoma): 3100 nM | GI50 (UACC-62 melanoma): 1860 nM | TGI (UACC-62 melanoma): 3510 nM | GI50 (SNB-75 CNS): 1700 nM | TGI (SNB-75 CNS): 3230 nM | GI50 (SK-MEL-2 melanoma): 2200 nM | TGI (SK-MEL-2 melanoma): 3880 nM | GI50 (MALME-3M melanoma): 2010 nM | TGI (MALME-3M melanoma): 4260 nM | GI50 (OVCAR-4 ovarian): 1930 nM | TGI (OVCAR-4 ovarian): 3770 nM | GI50 (OVCAR-3 ovarian): 1950 nM | TGI (OVCAR-3 ovarian): 3460 nM | GI50 (PC-3 prostate): 1580 nM | TGI (PC-3 prostate): 3030 nM | GI50 (SF-539 CNS): 1690 nM | TGI (SF-539 CNS): 3440 nM | GI50 (T-47D breast): 1740 nM | TGI (T-47D breast): 3800 nM | GI50 (MCF7 breast): 1480 nM | TGI (MCF7 breast): 2960 nM | GI50 (HCT-116 colon): 1530 nM | TGI (HCT-116 colon): 3050 nM | GI50 (HCT-15 colon): 1790 nM | TGI (HCT-15 colon): 4140 nM | GI50 (RXF 393 renal): 1480 nM | TGI (RXF 393 renal): 2850 nM | GI50 (KM12 colon): 1930 nM | TGI (KM12 colon): 3450 nM | GI50 (A498 renal): 1360 nM | TGI (A498 renal): 2700 nM | GI50 (HOP-92 NSCLC): 1200 nM | TGI (HOP-92 NSCLC): 2710 nM | GI50 (NCI-H522 lung): 1750 nM | TGI (NCI-H522 lung): 3350 nM | GI50 (SR leukemia): 1420 nM | TGI (SR leukemia): 3930 nM | GI50 (SF-268 CNS): 1840 nM | TGI (SF-268 CNS): 3710 nM | GI50 (COLO 205 colon): 1780 nM | TGI (COLO 205 colon): 3310 nM | GI50 (NCI-H226 lung): 1840 nM | TGI (NCI-H226 lung): 3720 nM | GI50 (OVCAR-5 ovarian): 1560 nM | TGI (OVCAR-5 ovarian): 3080 nM | GI50 (LOX IMVI melanoma): 1660 nM | TGI (LOX IMVI melanoma): 3600 nM | GI50 (A549 NSCLC): 1820 nM | TGI (A549 NSCLC): 3400 nM | GI50 (SN12C renal): 1850 nM | TGI (SN12C renal): 3560 nM | GI50 (NCI-H23 lung): 1590 nM | TGI (NCI-H23 lung): 3320 nM | GI50 (CAKI-1 renal): 1710 nM | TGI (CAKI-1 renal): 3440 nM | GI50 (CCRF-CEM leukemia): 2500 nM | TGI (CCRF-CEM leukemia): 5170 nM | GI50 (NCI-H460 lung): 1680 nM | TGI (NCI-H460 lung): 3300 nM | GI50 (786-0 renal): 1510 nM | TGI (786-0 renal): 3430 nM | GI50 (K-562 leukemia): 1610 nM | TGI (K-562 leukemia): 3410 nM | GI50 (MDA-MB-435): 1800 nM | TGI (MDA-MB-435): 3560 nM | GI50 (RPMI-8226 leukemia): 2070 nM | TGI (RPMI-8226 leukemia): 4720 nM | GI50 (SK-MEL-28 melanoma): 1900 nM | TGI (SK-MEL-28 melanoma): 3410 nM | GI50 (HS 578T breast): 1590 nM | TGI (HS 578T breast): 3670 nM | GI50 (ACHN renal): 1740 nM | TGI (ACHN renal): 3450 nM | GI50 (DU-145 prostate): 1890 nM | TGI (DU-145 prostate): 3360 nM | GI50 (UACC-257 melanoma): 1830 nM | TGI (UACC-257 melanoma): 3510 nM | GI50 (HOP-62 NSCLC): 1770 nM | TGI (HOP-62 NSCLC): 3280 nM | GI50 (TK-10 renal): 1980 nM | TGI (TK-10 renal): 3510 nM | GI50 (M14 melanoma): 1810 nM | TGI (M14 melanoma): 3380 nM | GI50 (HT29 colon): 1770 nM | TGI (HT29 colon): 3230 nM | GI50 (SNB-19 CNS): 1820 nM | TGI (SNB-19 CNS): 3510 nM | GI50 (SF-295 CNS): 1850 nM | TGI (SF-295 CNS): 3670 nM | GI50 (UO-31 renal): 1340 nM | TGI (UO-31 renal): 2830 nM | GI50 (MDA-MB-231 breast): 1600 nM | TGI (MDA-MB-231 breast): 3270 nM | GI50 (HCC-2998 colon): 1490 nM | TGI (HCC-2998 colon): 2940 nM | GI50 (EKVX NSCLC): 1820 nM | TGI (EKVX NSCLC): 3610 nM | GI50 (U251 CNS): 1720 nM | TGI (U251 CNS): 3200 nM
